Among the data in ChEMBL document CHEMBL1150319, “Activity-based probe for specific photoaffinity labeling gamma-aminobutyric acid B (GABAB) receptors on living cells: design, synthesis, and biological evaluation” (J Med Chem, 2008) are Activity and IC50 values, retold here.

Molecules are shown by their SMILES. pIC50: −log10 of the molar value. The source made the active and inactive calls. The rule behind the calls is not given here.

The subject of one test is HEK293. The experiment in a line: Antagonist activity at GABA B receptor expressed in HEK293 cells assessed as inhibition of GABA-induced IP production at 10 uM after 15 mins. Type of test: functional, cell-based.
In test [1] the test system is CHO. The test is described as follows: Displacement of CGP-64213 from GABA B1-ASA receptor mutant expressed in CHO cells at 1 uM. Type of test: cell-based.
The subject of test [2] is CHO. The experiment in a line: Binding affinity at intracellular GABA B receptor expressed in CHO cells at 1uM before 15 mins of UV irradiation by […] microscopy based photoaffinity labeling. The format is cell-based.
The subject of test [3] is CHO. The experiment in a line: Binding affinity at intracellular DsRed2-tagged GABA B receptor expressed in CHO cells at 1 uM by fluorescence confocal microscopy based photoaffinity labeling. The format is cell-based.
Test [4] in a line: Antagonist activity at GABA B receptor expressed in HEK293 cells assessed as inhibition of GABA-induced IP production after 15 mins. Type of test: functional, cell-based. Conditions: HEK293, 0.25 h.
The subject of test [5] is CHO. The test is described as follows: Increase in labeling efficiency in CHO cells expressing GABA B1-ASA receptor mutant after UV irradiation. The format is cell-based.
For test [6], the system named is CHO. The test is described as follows: Binding affinity at cell surface GABA B receptor expressed in CHO cells at 1 uM before 15 mins of UV irradiation by […] microscopy based photoaffinity labeling.

On to `CC1=CC(C)=[N+]2C1=C(CCCC(=O)NCCOCCOCCOc1cc(C3(C(F)(F)F)N=N3)ccc1CO)c1c(C)cc(C)n1[B-]2(F)F`, for which the outcome in the test on HEK293 and in the test on CHO [1] was inactive.

Broadly, the pIC50 is −log10 of the IC50, conventionally taken in molar units. On to `CC1=CC(C)=[N+]2C1=C(CCCC(=O)NCc1cn(CC(=O)NCCOCCOCCOc3cc(C4(C(F)(F)F)N=N4)ccc3C(=O)NCCCCCP(=O)(O)C[C@@H](O)CN[C@H](C)c3cccc(C(=O)O)c3)nn1)c1c(C)cc(C)n1[B-]2(F)F`, for which the outcome in the test with CHO [1], with CHO [5] and in the test on CHO [6] was Active. Also, the result with CHO [2] and with CHO [3] was inactive. Besides, the pIC50 in test [4] was 5.99.
